The values that follow are results of earlier work, collected in US12138351B2, “Pharmaceutical composition for oral administration comprising aminopyrimidine derivative or pharmaceutically acceptable salt, hydrate, or solvate thereof” (Janssen Biotech, Inc., priority 2020, dated 2024).

Where two headings read alike, the source gives them in different places.

The conditions of series [1]: compared to the compound in the form of free-base.
The next series has as its target wild-type EGFR (Homo sapiens, UniProt P00533). The note with it: known irreversible EGFR TKI.
Series [2] has as its system T790M single active mutation (EGFRm) and double mutation. The note with it: known irreversible EGFR TKI.

wild-type EGFR, sequence (P00533 25-1210): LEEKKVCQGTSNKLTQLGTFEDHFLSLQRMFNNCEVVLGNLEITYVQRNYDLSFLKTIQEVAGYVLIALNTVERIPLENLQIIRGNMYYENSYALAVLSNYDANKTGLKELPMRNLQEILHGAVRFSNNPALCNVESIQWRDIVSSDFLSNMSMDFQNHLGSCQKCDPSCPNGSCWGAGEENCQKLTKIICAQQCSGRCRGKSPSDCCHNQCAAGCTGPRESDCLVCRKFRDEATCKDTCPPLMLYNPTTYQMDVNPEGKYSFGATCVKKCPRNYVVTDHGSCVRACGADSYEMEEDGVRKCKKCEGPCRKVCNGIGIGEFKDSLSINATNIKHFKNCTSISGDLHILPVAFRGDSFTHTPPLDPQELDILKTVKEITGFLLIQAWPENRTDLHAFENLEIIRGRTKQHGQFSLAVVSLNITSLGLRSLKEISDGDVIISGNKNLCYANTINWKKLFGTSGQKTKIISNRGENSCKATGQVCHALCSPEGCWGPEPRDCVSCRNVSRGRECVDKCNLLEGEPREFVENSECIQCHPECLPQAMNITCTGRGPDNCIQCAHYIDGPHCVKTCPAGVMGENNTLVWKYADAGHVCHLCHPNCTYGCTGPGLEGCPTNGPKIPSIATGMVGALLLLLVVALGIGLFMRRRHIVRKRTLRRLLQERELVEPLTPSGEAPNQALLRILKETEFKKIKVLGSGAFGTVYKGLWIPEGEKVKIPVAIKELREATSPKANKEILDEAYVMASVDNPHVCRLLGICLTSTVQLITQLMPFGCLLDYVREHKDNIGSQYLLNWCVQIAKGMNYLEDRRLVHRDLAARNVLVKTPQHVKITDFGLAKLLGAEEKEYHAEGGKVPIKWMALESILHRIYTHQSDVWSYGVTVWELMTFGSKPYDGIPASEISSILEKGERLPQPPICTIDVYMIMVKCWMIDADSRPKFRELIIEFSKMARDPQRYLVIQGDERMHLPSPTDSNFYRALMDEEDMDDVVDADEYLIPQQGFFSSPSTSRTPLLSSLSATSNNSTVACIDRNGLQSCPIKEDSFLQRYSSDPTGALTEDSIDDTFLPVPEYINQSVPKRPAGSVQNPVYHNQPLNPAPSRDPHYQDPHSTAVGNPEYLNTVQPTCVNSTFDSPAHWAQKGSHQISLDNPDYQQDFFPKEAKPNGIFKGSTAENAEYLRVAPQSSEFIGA

Consider “N-(5-(4-(4-((dimethylamino)methyl)-3-phenyl-1H-pyrazol-1-yl)pirimidine-2-ylamino)-4-methoxy-2-morpholinophenyl)acrylamide mesylate [Lazertinib mesylate]”, for which, in series [1], the stability result is recorded as “excellent”. The bioavailability entry (co-administration with, e.g., an antacid, as well as administration alone) is reported as “excellent bioavailability” and the bioavailability entry (compared to the compound in the form of free-base) was “excellent”.
Regarding `C=CC(=O)Nc1cc(Nc2nccc(-n3cc(CN(C)C)c(-c4ccccc4)n3)n2)c(OC)cc1N1CCOCC1` [Lazertinib, N-(5-(4-(4-((dimethylamino)methyl)-3-phenyl-1H-pyrazol-1-yl)pirimidine-2-ylamino)-4-methoxy-2-morpholinophenyl)acrylamide], on wild-type EGFR, the “effect on wild-type EGFR” value is “less effect”. In addition, the “inhibitory activity on T790M single active mutation (EGFRm) and double mutation” value in series [2] is “strong inhibitory activity”.
